“And” between values parts separate entries of the source, which are not always exact repeats. Equal entries are not always repeated. Toxic doses and inconclusive results are not listed. Rule for the calls: active = survival T/C of 150% or more; inactive = T/C below 125% in these data.
Test system: CD2F1 mice, L1210 leukemia ip, survival T/C
Experiment: NCI In Vivo Anticancer Drug Screen. Data for tumor model L1210 Leukemia (intraperitoneal) in CD2F1 (CDF1) mice
Conditions: higher = longer survival
Outline: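 Vehicle-treated tumor-bearing mice served as controls (C) for compound-treated mice (T). Reported figure is T divided by C.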

[1] = endpoint: mean survival time, dose: 12.5 mg/kg/injection, schedule: Q01DX009 (ip), vehicle: saline with Tween-80
[2] = endpoint: mean survival time, dose: 25.0 mg/kg/injection, schedule: Q01DX009 (ip), vehicle: saline with Tween-80
[3] = endpoint: mean survival time, dose: 50.0 mg/kg/injection, schedule: Q01DX009 (ip), vehicle: saline with Tween-80
[4] = endpoint: mean survival time, dose: 200.0 mg/kg/injection, schedule: Q01DX009 (ip), vehicle: saline with Tween-80
[5] = endpoint: mean survival time, dose: 100.0 mg/kg/injection, schedule: Q01DX009 (ip), vehicle: saline with Tween-80
[6] = endpoint: mean survival time, dose: 100.0 mg/kg/injection, schedule: Q04DX003 (ip), vehicle: saline
[7] = endpoint: mean survival time, dose: 100.0 mg/kg/injection, schedule: Q04DX003 (ip), vehicle: saline with Tween-80
[8] = endpoint: mean survival time, dose: 200.0 mg/kg/injection, schedule: Q04DX003 (ip), vehicle: saline with Tween-80
[9] = endpoint: mean survival time, dose: 400.0 mg/kg/injection, schedule: Q04DX003 (ip), vehicle: saline with Tween-80
[10] = endpoint: mean survival time, dose: 100.0 mg/kg/injection, schedule: Q04DX002 (ip), vehicle: saline

Measured: T/C

CC(=O)Nc1ccc(OCCOC(=O)Nc2ccc(Cl)cc2C)cc1
inactive: [1] 98 % of control | [2] 95 % of control | [3] 95 % of control and 96 % of control | [4] 92 % of control

OC(C/C=C/c1ccccc1)(c1ccccc1)c1ccccc1
inactive: [5] 93 % of control | [4] 101 % of control | endpoint: mean survival time, dose: 400.0 mg/kg/injection, schedule: Q01DX009 (ip), vehicle: saline with Tween-80 96 % of control

Cc1nc(C)c(C(=O)O)cc1C(=O)O
inactive: [6] 102 % of control | endpoint: mean survival time, dose: 200.0 mg/kg/injection, schedule: Q04DX003 (ip), vehicle: saline 96 % of control | endpoint: mean survival time, dose: 400.0 mg/kg/injection, schedule: Q04DX003 (ip), vehicle: saline 98 % of control

Cc1ccc(SCc2c(COc3ccc(Cl)cc3)sc3ccc(Cl)cc23)cc1
inactive: [7] 92 % of control | [8] 92 % of control | [9] 94 % of control

COC(=O)c1cncn1C(C)c1cccc2ccccc12 (configuration not stated)
inactive: [7] 108 % of control | [8] 100 % of control

COc1cc([C@@H]2c3cc4c(cc3C[C@H]3COC(=O)[C@@H]32)OCO4)cc(OC)c1OC
inactive: endpoint: mean survival time, dose: 6.25 mg/kg/injection, schedule: Q01DX015 (ip), vehicle: saline 111 % of control | endpoint: mean survival time, dose: 12.5 mg/kg/injection, schedule: Q01DX015 (ip), vehicle: saline 118 % of control | endpoint: mean survival time, dose: 25.0 mg/kg/injection, schedule: Q01DX015 (ip), vehicle: saline 106 % of control

NC(=O)c1ccccc1CO
inactive: endpoint: mean survival time, dose: 100.0 mg/kg/injection, schedule: Q04DX002 (ip), vehicle: saline with Tween-80 102 % of control | endpoint: mean survival time, dose: 200.0 mg/kg/injection, schedule: Q04DX002 (ip), vehicle: saline with Tween-80 98 % of control | endpoint: mean survival time, dose: 400.0 mg/kg/injection, schedule: Q04DX002 (ip), vehicle: saline with Tween-80 98 % of control

O=C(O)CC1(CC(=O)O)CCCCC1
inactive: [3] 98 % of control | [5] 94 % of control | [7] 91 % of control | [4] 100 % of control | [8] 93 % of control

Cc1cccnc1F
inactive: [1] 95 % of control | [2] 97 % of control | [3] 100 % of control | [7] 93 % of control | [8] 96 % of control | [9] 96 % of control

COc1ccc(C=NCCO)cc1OC
inactive: endpoint: median survival time, dose: 50.0 mg/kg/injection, schedule: Q04DX002 (ip), vehicle: saline with Tween-80 111 % of control | endpoint: median survival time, dose: 100.0 mg/kg/injection, schedule: Q04DX002 (ip), vehicle: saline with Tween-80 100 % of control | endpoint: median survival time, dose: 200.0 mg/kg/injection, schedule: Q04DX002 (ip), vehicle: saline with Tween-80 100 % of control | endpoint: median survival time, dose: 400.0 mg/kg/injection, schedule: Q04DX002 (ip), vehicle: saline with Tween-80 100 % of control

COc1ccc(Cl)cc1Cn1ccnc1
inactive: endpoint: mean survival time, dose: 50.0 mg/kg/injection, schedule: Q01DX001 (ip), vehicle: saline 104 % of control | endpoint: mean survival time, dose: 50.0 mg/kg/injection, schedule: Q01DX009 (ip), vehicle: saline 115 % of control and 102 % of control | endpoint: mean survival time, dose: 50.0 mg/kg/injection, schedule: Q04DX003 (ip), vehicle: saline 107 % of control | endpoint: mean survival time, dose: 100.0 mg/kg/injection, schedule: Q01DX001 (ip), vehicle: saline 107 % of control | endpoint: mean survival time, dose: 100.0 mg/kg/injection, schedule: Q01DX009 (ip), vehicle: saline 118 % of control and 107 % of control | [10] 115 % of control and 100 % of control | [6] 115 % of control | endpoint: mean survival time, dose: 200.0 mg/kg/injection, schedule: Q04DX002 (ip), vehicle: saline 117 % of control and 109 % of control

COc1nc(NC2OC(CO)C(O)C(O)C2O)c(C(C)=O)c(=O)n1C (configuration not stated)
inactive: endpoint: median survival time, dose: 12.5 mg/kg/injection, schedule: Q01DX005 (ip), vehicle: saline with Tween-80 94 % of control | endpoint: median survival time, dose: 25.0 mg/kg/injection, schedule: Q01DX005 (ip), vehicle: saline with Tween-80 98 % of control | endpoint: median survival time, dose: 50.0 mg/kg/injection, schedule: Q01DX005 (ip), vehicle: saline with Tween-80 100 % of control | endpoint: median survival time, dose: 100.0 mg/kg/injection, schedule: Q01DX005 (ip), vehicle: saline with Tween-80 97 % of control | endpoint: median survival time, dose: 200.0 mg/kg/injection, schedule: Q01DX005 (ip), vehicle: saline with Tween-80 98 % of control

C[N+](C)(C)CCS(=O)(=O)c1ccc(Cl)cc1
inactive: endpoint: mean survival time, dose: 25.0 mg/kg/injection, schedule: Q04DX002 (ip), vehicle: saline 90 % of control | endpoint: mean survival time, dose: 50.0 mg/kg/injection, schedule: Q04DX002 (ip), vehicle: saline 94 % of control | [10] 86 % of control

From PubChem BioAssay AID256 (DTP/NCI, 2004)
